Results: ChEMBL document CHEMBL5518181, “Studies of antibacterial activity (in vitro and in vivo) and mode of action for des-acyl tridecaptins (DATs)” (Eur J Med Chem, 2024)
Converted amounts (≈) assume the structure as drawn. The source made the active and inactive calls. No cut-off for these calls is given here.

What was measured:
[1] = tested on: Escherichia coli; assay: Antibacterial activity against Escherichia coli ATCC 25922 harboring tolC knock-out assessed as inhibition of bacterial growth incubated for 18 hrs; assay type: functional; details: read-out: MIC100
[2] = Clearance in mouse microsomes; assay type: ADME, Microsome
[3] = tested on: Escherichia coli; assay: Antibacterial activity against Escherichia coli ATCC 35218 infected in Swiss albino mouse septicemia model assessed as log10 reduction in bacterial burden below stasis in blood at 20 mg/kg, iv administered twice every 2 hrs and measured after 5 hrs; assay type: functional
[4] = Aqueous solubility of compound at pH 7.4; assay type: physicochemical
[5] = tested on: Klebsiella pneumoniae; assay: Bactericidal activity against Klebsiella pneumoniae ATCC 13883 at 0 to 8 times MIC measured for 24 hrs by time-kill assay; assay type: functional, organism-based
[6] = AUClast in Swiss mouse lung at 10 mg/kg, iv administered as single bolus dose and measured upto 24 hrs by LC-MS/MS analysis; assay type: ADME, organism-based
[7] = Chemical stability of compound in mercaptoethanol; assay type: physicochemical
[8] = Clearance in human microsomes; assay type: ADME, Microsome
[9] = Hepatotoxicity in cryopreserved rat primary hepatocytes; assay type: toxicity, cell-based, Hepatocyte
[10] = Volume of distribution at steady state in Swiss mouse at 10 mg/kg, iv administered as single bolus dose and measured upto 24 hrs by LC-MS/MS analysis; assay type: ADME, organism-based; details: in vivo, read-out: Vdss
[11] = tested on: Morganella morganii; assay: Antibacterial activity against Morganella morganii ATCC 25830 assessed as inhibition of bacterial growth incubated for 18 hrs; assay type: functional; details: read-out: MIC100
[12] = Genotoxicity in human TK6 cells measured after 3 to 24 hrs; assay type: toxicity, cell-based; details: time 3-24 hrs
[13] = tested on: Escherichia coli; assay: Antibacterial activity against Escherichia coli ATCC BAA-2469 expressing NDM-1 assessed as inhibition of bacterial growth incubated for 18 hrs; assay type: functional; details: read-out: MIC100
[14] = tested on: Klebsiella pneumoniae; assay: Antibacterial activity against Klebsiella pneumoniae ATCC 43816 infected in mouse urinary tract infection model at <10 mg/kg, iv administered every 4 hrs and measured after 26 hrs; assay type: functional, organism-based
[15] = molecular target: T1, Cytochrome P450 2B6 (Homo sapiens, UniProt P20813); assay: Induction of CYP2B6 (unknown origin); assay type: ADME
T1 sequence (P20813 whole entry): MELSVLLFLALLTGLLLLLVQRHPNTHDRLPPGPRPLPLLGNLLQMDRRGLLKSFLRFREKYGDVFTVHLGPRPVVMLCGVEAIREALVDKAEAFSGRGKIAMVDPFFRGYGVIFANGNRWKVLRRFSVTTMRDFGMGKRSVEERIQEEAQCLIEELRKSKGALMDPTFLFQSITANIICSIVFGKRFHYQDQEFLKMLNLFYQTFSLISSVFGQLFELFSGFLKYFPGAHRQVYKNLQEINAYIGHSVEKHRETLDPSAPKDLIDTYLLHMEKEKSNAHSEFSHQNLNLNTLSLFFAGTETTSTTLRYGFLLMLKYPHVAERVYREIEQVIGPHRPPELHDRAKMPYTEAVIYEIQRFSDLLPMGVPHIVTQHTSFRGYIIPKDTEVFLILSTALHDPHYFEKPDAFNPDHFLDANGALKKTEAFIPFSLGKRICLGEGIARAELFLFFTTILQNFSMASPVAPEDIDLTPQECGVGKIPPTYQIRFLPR

[16] = tested on: Proteus mirabilis; assay: Antibacterial activity against Proteus mirabilis ATCC 7002 assessed as inhibition of bacterial growth incubated for 18 hrs; assay type: functional; details: read-out: MIC100
[17] = tested on: Pseudomonas aeruginosa; assay: Antibacterial activity against wild-type Pseudomonas aeruginosa PAO1 assessed as inhibition of bacterial growth incubated for 24 hrs; assay type: functional; details: read-out: MIC100
[18] = tested on: Enterobacter cloacae; assay: Antibacterial activity against Enterobacter cloacae ATCC 23355 assessed as inhibition of bacterial growth incubated for 18 hrs; assay type: functional; details: read-out: MIC100
[19] = molecular target: T2, Cytochrome P450 1A2 (Homo sapiens, UniProt P05177); assay: Induction of CYP1A2 (unknown origin); assay type: ADME
T2 sequence (P05177 whole entry): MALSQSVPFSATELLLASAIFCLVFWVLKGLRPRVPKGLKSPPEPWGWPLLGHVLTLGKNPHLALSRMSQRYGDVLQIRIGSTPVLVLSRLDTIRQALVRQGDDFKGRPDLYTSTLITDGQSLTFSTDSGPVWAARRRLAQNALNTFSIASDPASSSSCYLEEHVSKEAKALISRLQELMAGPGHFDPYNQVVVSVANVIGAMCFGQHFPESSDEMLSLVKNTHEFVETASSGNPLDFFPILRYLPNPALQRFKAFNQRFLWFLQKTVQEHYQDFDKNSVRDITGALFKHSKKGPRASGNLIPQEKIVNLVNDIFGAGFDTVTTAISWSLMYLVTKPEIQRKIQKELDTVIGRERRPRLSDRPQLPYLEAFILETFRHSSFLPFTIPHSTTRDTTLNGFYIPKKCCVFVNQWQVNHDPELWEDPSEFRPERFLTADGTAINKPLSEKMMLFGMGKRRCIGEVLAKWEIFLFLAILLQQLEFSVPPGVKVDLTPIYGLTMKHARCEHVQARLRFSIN

[20] = molecular target: T1, Cytochrome P450 2B6; assay: Inhibition of CYP2B6 (unknown origin); assay type: ADME
[21] = molecular target: Cytochrome P450 3A4 (Homo sapiens, UniProt P08684); assay: Inhibition of CYP3A4 (unknown origin); assay type: ADME
Sequence of Cytochrome P450 3A4 (P08684 whole entry): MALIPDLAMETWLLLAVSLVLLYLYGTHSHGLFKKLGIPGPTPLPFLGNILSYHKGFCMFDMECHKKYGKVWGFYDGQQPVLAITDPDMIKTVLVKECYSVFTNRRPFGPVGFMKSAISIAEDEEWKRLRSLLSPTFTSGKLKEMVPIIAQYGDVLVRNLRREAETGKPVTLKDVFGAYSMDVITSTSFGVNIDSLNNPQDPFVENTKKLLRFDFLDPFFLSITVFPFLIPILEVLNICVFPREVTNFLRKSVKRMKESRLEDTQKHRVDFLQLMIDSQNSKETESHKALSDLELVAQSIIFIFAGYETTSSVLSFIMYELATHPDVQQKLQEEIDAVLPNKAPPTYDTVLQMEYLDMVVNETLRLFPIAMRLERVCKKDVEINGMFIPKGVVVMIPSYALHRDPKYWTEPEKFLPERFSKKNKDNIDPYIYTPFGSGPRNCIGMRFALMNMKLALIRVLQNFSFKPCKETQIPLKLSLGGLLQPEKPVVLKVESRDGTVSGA

[22] = tested on: Citrobacter freundii; assay: Antibacterial activity against Citrobacter freundii ATCC 8090 assessed as inhibition of bacterial growth incubated for 18 hrs; assay type: functional; details: read-out: MIC100
[23] = tested on: Escherichia coli; assay: Antibacterial activity against Escherichia coli ATCC 35218 infected in Swiss albino mouse septicemia model at 10 to 30 mg/kg, iv administered twice every 2 hrs and measured after 5 hrs; assay type: functional, organism-based; details: dose 10-30 mg/kg
[24] = tested on: Klebsiella pneumoniae; assay: Antibacterial activity against Klebsiella pneumoniae ATCC 43816 infected in mouse urinary tract infection model assessed as reduction in bacterial burden in kidney at <10 mg/kg, iv administered every 4 hrs and measured after 26 hrs; assay type: functional, organism-based
[25] = tested on: Klebsiella pneumoniae; assay: Antibacterial activity against Klebsiella pneumoniae ATCC 13883 assessed as inhibition of bacterial growth incubated for 18 hrs in presence of 150 mM NaCl; assay type: functional, organism-based
[26] = tested on: Escherichia coli; assay: Antibacterial activity against Escherichia coli ATCC 35218 infected in Swiss albino mouse septicemia model assessed as log10 reduction in bacterial burden below stasis in spleen at 20 mg/kg, iv administered twice every 2 hrs and measured after 5 hrs; assay type: functional
[27] = tested on: Lipopolysaccharide (LPS); assay: Binding affinity to Escherichia coli O55:B5 LPS assessed as dissociation constant by ITC analysis; assay type: subcellular
[28] = Binding affinity to gram negative bacterial lipid II assessed as dissociation constant by ITC analysis; set-up: species or system Bacteria
[29] = Cmax in Swiss mouse liver at 10 mg/kg, iv administered as single bolus dose and measured upto 24 hrs by LC-MS/MS analysis; assay type: ADME, organism-based
[30] = tested on: Staphylococcus aureus; assay: Antibacterial activity against […] assessed as inhibition of bacterial growth incubated for 18 hrs; assay type: functional; details: ATCC 29213, read-out: MIC100
[31] = tested on: Klebsiella pneumoniae; assay: Antibacterial activity against Klebsiella pneumoniae ATCC 13883 assessed as inhibition of bacterial growth incubated for 18 hrs in presence of 25 mM bicarbonate; assay type: functional, organism-based
[32] = tested on: Cell membrane; assay: Induction of membrane permeabilization in Escherichia coli ATCC 25922 at 32 to 64 ug/ml measured after 30 mins to 2 hrs by Sytox Green labelling based microscopic analysis; assay type: cell membranes; details: dose 32-64 µg/ml, time 0.5-2 hrs
[33] = Aqueous solubility of compound at pH 4.6; assay type: physicochemical

CC[C@H](C)[C@@H](NC(=O)[C@@H](NC(=O)[C@H](CCC(=O)O)NC(=O)[C@H](Cc1ccccc1)NC(=O)[C@@H](CCN)NC(=O)[C@H](CCN)NC(=O)[C@H](CO)NC(=O)[C@@H](Cc1c[nH]c2ccccc12)NC(=O)[C@@H](CO)NC(=O)CNC(=O)[C@@H](CCN)NC(=O)[C@H](NC(=O)[C@H](C)N)C(C)C)C(C)C)C(=O)N[C@@H](C)C(=O)O
MIC [1]: 1 µg/mL (≈ 0.682 µM) | microsomal CLint [2]: 2 µL/min/mg | log(activity) [3]: ~2 | solubility [4]: > 1000 µg/mL | Activity [5]: Active | AUC(0-t) at 24 h [6]: 12100 ng·h/mL | Stability [7]: Stable | microsomal CLint [8]: 23 µL/min/mg | Activity [9]: Non-Toxic | Vd [10]: 0.1 L/kg | MIC [11]: > 32 µg/mL | Activity [12]: Non-Toxic | MIC [13]: 8 µg/mL (≈ 5.46 µM) | Activity [14]: Active | Activity [15]: Not Active | MIC [16]: > 64 µg/mL | MIC [17]: 64 µg/mL (≈ 43.7 µM) | MIC [18]: 2 µg/mL (≈ 1.36 µM) | Activity [19]: Not Active | inhibition (INH) [20]: Not Active | inhibition (INH) [21]: Not Active | MIC [22]: 4 µg/mL (≈ 2.73 µM) | Activity [23]: Active | Activity [24]: Active | Activity [25]: Active | log(activity) [26]: 1 | Kd [27]: 35.7 µM | Kd [28]: 2.6 µM | Cmax [29]: 5650 ng/mL | MIC [30]: > 64 µg/mL | Activity [31]: Active | Activity [32]: Active | solubility [33]: > 1000 µg/mL
